We go through one compound from article PMC6691809 (Mycobiology, 2019).

For experiment [1], the target named is neuraminidase from recombinant H3N2 influenza A virus (Influenza A virus, UniProt P03482). Briefly: biochemical. In kind it is biochemical.
The target of experiment [2] is neuraminidase from recombinant H5N1 influenza A virus (Influenza A virus, UniProt Q6DPL2). Briefly: biochemical.
Chain of neuraminidase from recombinant H5N1 influenza A virus (Q6DPL2 whole entry, looked up): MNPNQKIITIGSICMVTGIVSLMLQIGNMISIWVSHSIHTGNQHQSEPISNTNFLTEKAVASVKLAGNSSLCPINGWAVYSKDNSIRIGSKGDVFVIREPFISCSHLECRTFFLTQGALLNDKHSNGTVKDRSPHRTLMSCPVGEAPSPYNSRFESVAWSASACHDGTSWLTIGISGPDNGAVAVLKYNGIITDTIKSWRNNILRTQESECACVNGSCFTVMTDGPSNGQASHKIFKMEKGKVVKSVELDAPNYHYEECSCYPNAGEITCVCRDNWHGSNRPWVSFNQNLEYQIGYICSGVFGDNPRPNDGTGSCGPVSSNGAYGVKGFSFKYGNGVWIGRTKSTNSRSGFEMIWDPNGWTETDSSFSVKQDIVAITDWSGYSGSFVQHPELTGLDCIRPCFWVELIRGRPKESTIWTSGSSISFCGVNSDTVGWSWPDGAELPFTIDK

Chain of neuraminidase from recombinant H3N2 influenza A virus (P03482 whole entry): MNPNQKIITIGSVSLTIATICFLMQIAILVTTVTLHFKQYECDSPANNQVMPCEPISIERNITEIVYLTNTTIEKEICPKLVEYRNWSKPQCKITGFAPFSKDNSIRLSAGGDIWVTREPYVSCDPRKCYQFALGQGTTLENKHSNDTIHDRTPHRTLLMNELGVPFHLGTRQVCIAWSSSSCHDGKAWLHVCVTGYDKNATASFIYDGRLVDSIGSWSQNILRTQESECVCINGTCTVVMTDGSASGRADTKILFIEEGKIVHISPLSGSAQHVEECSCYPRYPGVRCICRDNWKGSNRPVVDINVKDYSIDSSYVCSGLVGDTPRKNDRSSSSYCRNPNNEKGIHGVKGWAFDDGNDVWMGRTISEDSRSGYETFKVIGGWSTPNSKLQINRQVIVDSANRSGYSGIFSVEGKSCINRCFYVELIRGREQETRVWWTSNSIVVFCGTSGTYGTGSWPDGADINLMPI

For `C/C=C/C1=CC2=C(CO1)C(=O)[C@](C)(O)[C@H](OC(=O)c1c(C)cc(O)cc1O)C2` [Compound 3, comazaphilone D], the Inhibition type entry in experiment [1] is on record as “Non-competitive (35.3)”. Further, the Ki in experiment [1] stood at 35.3 µM. The IC50 was 30.9 ± 0.1 µM in experiment [1] (IC50 H3N2 neuraminidase) and 35.7 ± 0.2 µM in experiment [2].
